Measured values taken from patent US20240083857A1, “2-Methyl-Quinazolines” (Bayer Pharma Aktiengesellschaft, priority 2017, published 2024).
Where two headings read alike, the source gives them in different places.

Assays:
[1] = target: human SOS1 (nucleotide exchange of K-Ras^G12C) (Homo sapiens, UniProt Q07889); assay: Biochemical assay 2: K-Ras^G12C activation assay by hSOS1 at high GTP concentration (HTRF); conditions: for inhibition at 20 µM: read-out: Assay 2 (KRAS-Activation by SOS high GTP) activity expressed as % inhibition at 20 μM
[2] = target: human SOS1 (loading of human K-Ras^G12C-GDP with fluorescent GTP-analog) (Homo sapiens, UniProt Q07889); assay: Biochemical assay 3: K-Ras^G12C activation assay by hSOS1 (HTRF); conditions: for inhibition at 20 µM: read-out: Assay 3 (KRAS-Activation by SOS no GTP) activity expressed as % inhibition at 20 μM
[3] = E-notation values, unit inferred, 50 μM GTP, read-out: Assay 2 (KRAS-Activation, high GTP) IC50
[4] = E-notation values, unit inferred, read-out: Assay 3 (KRAS-Activation) IC50
[5] = high GTP, read-out: Assay 2 (KRAS-Activation by SOS high GTP) activity expressed as IC50
[6] = no GTP, read-out: Assay 3 (KRAS-Activation by SOS no GTP) activity expressed as IC50

Row | Compound | IC50 [1, 3] [nM] | IC50 [2, 4] [nM] | also measured
1 | COc1cc2nc(C)nc(NC(C)c3ccc(-c4ccccc4CN(C)C)s3)c2cc1OC (single isomer, unassigned) [Example 390, N-[1-(5-{2-[(dimethylamino)methyl]phenyl}thiophen-2-yl)ethyl]-6,7-dimethoxy-2-methylquinazolin-4-amine] | 6250 | 12900 | 
2 | COc1cc2nc(C)nc(NC(C)c3ccc(-c4ccccc4CN(C)C)s3)c2cc1OC (single isomer, unassigned) [Example 391, N-[1-(5-{2-[(dimethylamino)methyl]phenyl}thiophen-2-yl)ethyl]-6,7-dimethoxy-2-methylquinazolin-4-amine] | 36.7 | 37.9 | 
3 | COc1cc2nc(C)nc(NC(C)c3ccc(=O)[nH]c3)c2cc1OC (single isomer, unassigned; enantiomer 1) [Example 227, 5-{1-[(6,7-dimethoxy-2-methylquinazolin-4-yl)amino]ethyl}pyridin-2(1H)-one, Enantiomer 1] |  |  | inhibition at 20 µM ([1]; high GTP): 24%; inhibition at 20 µM ([2]; no GTP): 34%
4 | COc1cc2nc(C)nc(NC(C)c3c(C)ccc4[nH]ncc34)c2cc1OC (centres unmarked) [Example 7, 6,7-dimethoxy-2-methyl-N-[1-(5-methyl-1H-indazol-4-yl)ethyl]quinazolin-4-amine] |  |  | inhibition at 20 µM ([1]; high GTP): 18%; inhibition at 20 µM ([2]; no GTP): 33%
5 | COc1cc2nc(C)nc(NC(C)c3ccc(-n4ccc(CCO)n4)o3)c2cc1OC (centres unmarked) [Example 226, 2-[1-(5-{1-[(6,7-dimethoxy-2-methylquinazolin-4-yl)amino]ethyl}furan-2-yl)-1H-pyrazol-3-yl]ethanol] |  |  | inhibition at 20 µM ([1]; high GTP): 37%; inhibition at 20 µM ([2]; no GTP): 24%
6 | COc1cc2nc(C)nc(NC(C)c3ccc(C4=CCCC4)s3)c2cc1OC (centres unmarked) [Example 231, N-{1-[5-(cyclopent-1-en-1-yl)thiophen-2-yl]ethyl}-6,7-dimethoxy-2-methylquinazolin-4-amine] |  |  | inhibition at 20 µM ([1]; high GTP): 53%; inhibition at 20 µM ([2]; no GTP): 24%
7 | COc1cc2nc(C)nc(NC(C)c3ccc(-c4ccc(CNC(=O)OC(C)(C)C)o4)s3)c2cc1OC (centres unmarked) [Example 236, tert-butyl {[5-(5-{1-[(6,7-dimethoxy-2-methylquinazolin-4-yl)amino]ethyl}thiophen-2-yl)furan-2-yl]methyl}carbamate] |  |  | IC50 [1, 5]: 3820 nM; inhibition at 20 µM ([2]; no GTP): 17%
8 | COC(=O)c1cc(-c2ccc(C(C)Nc3nc(C)nc4cc(OC)c(OC)cc34)s2)nn1C (centres unmarked) [Example 237, methyl 3-(5-{1-[(6,7-dimethoxy-2-methylquinazolin-4-yl)amino]ethyl}thiophen-2-yl)-1-methyl-1H-pyrazole-5-carboxylate] |  |  | inhibition at 20 µM ([1]; high GTP): 32%; inhibition at 20 µM ([2]; no GTP): 10%
9 | COc1cc2nc(C)nc(NC(C)c3ccc(-c4ccc(F)cc4CNC(=O)c4cc5ccccc5[nH]4)s3)c2cc1OC (centres unmarked) [Example 296, N-[2-(5-{1-[(6,7-dimethoxy-2-methylquinazolin-4-yl)amino]ethyl}thiophen-2-yl)-5-fluorobenzyl]-1H-indole-2-carboxamide] |  |  | inhibition at 20 µM ([1]; high GTP): 48%; IC50 [2, 6]: 11800 nM
10 | COc1cc2nc(C)nc(NC(C)c3ccc(-c4ccccc4CN4CCN(C(=O)OC(C)(C)C)CC4)s3)c2cc1OC (centres unmarked) [Example 306, tert-butyl 4-[2-(5-{1-[(6,7-dimethoxy-2-methylquinazolin-4-yl)amino]ethyl}thiophen-2-yl)benzyl]piperazine-1-carboxylate] |  |  | IC50 [1, 5]: 4200 nM; IC50 [2, 6]: 7940 nM
11 | COc1cc2nc(C)nc(NC(C)c3ccc(-c4ccccc4CNc4ccccc4)s3)c2cc1OC (centres unmarked) [Example 362, 6,7-dimethoxy-2-methyl-N-[1-(5-{2-[(phenylamino)methyl]phenyl}thiophen-2-yl)ethyl]quinazolin-4-amine] |  |  | inhibition at 20 µM ([1]; high GTP): 27%; inhibition at 20 µM ([2]; no GTP): 30%
12 | COCCNCc1ccccc1-c1ccc(C(C)Nc2nc(C)nc3cc(OC)c(OC)cc23)s1 (centres unmarked) [Example 369, 6,7-dimethoxy-N-{1-[5-(2-{[(2-methoxyethyl)amino]methyl}phenyl)thiophen-2-yl]ethyl}-2-methylquinazolin-4-amine] | 152 | 169 | 
13 | COc1cc2nc(C)nc(NC(C)c3ccc(-c4ccccc4CNC4CC4)s3)c2cc1OC (centres unmarked) [Example 370, N-[1-(5-{2-[(cyclopropylamino)methyl]phenyl}thiophen-2-yl)ethyl]-6,7-dimethoxy-2-methylquinazolin-4-amine] | 352 | 363 | 
14 | COC(=O)c1ccc2nc(C)nc(N[C@H](C)c3cccc(Cl)c3)c2c1 [Example 371, methyl 4-{[(1R)-1-(3-chlorophenyl)ethyl]amino}-2-methylquinazoline-6-carboxylate] | 2420 | 3350 | 
15 | Cc1nc(N[C@H](C)c2cccc(Cl)c2)c2cc(CO)ccc2n1 [Example 373, (4-{[(1R)-1-(3-chlorophenyl)ethyl]amino}-2-methylquinazolin-6-yl)methanol] | 6200 | 9210 | 
16 | COc1cc2nc(C)nc(NC(C)c3ccc(-c4ccccc4C(O)c4ccccc4)s3)c2cc1OC (centres unmarked) [Example 374, [2-(5-{1-[(6,7-dimethoxy-2-methylquinazolin-4-yl)amino]ethyl}thiophen-2-yl)-phenyl](phenyl)methanol] | 2550 | 6500 | 

Row | Compound | IC50 [1, 3] [nM] | IC50 [2, 4] [nM] | also measured
17 | COc1cc2nc(C)nc(NC(C)c3ccc(-c4ccccc4C(O)Cc4ccccc4)s3)c2cc1OC (centres unmarked) [Example 376, 1-[2-(5-{1-[(6,7-dimethoxy-2-methylquinazolin-4-yl)amino]ethyl}thiophen-2-yl)phenyl]-2-phenylethanol] | 18400 | 17900 | 
18 | CCCCC(O)c1ccccc1-c1ccc(C(C)Nc2nc(C)nc3cc(OC)c(OC)cc23)s1 (centres unmarked) [Example 377, 1-[2-(5-{1-[(6,7-dimethoxy-2-methylquinazolin-4-yl)amino]ethyl}thiophen-2-yl)phenyl]pentan-1-ol] | 9750 | 15100 | 
19 | C#CC(O)c1ccccc1-c1ccc(C(C)Nc2nc(C)nc3cc(OC)c(OC)cc23)s1 (centres unmarked) [Example 378, 1-[2-(5-{1-[(6,7-dimethoxy-2-methylquinazolin-4-yl)amino]ethyl}thiophen-2-yl)phenyl]prop-2-yn-1-ol] | 1050 | 1450 | 
20 | COc1cc2nc(C)nc(NC(C)c3ccc(-c4ccccc4C(O)C(C)C)s3)c2cc1OC (centres unmarked) [Example 379, 1-[2-(5-{1-[(6,7-dimethoxy-2-methylquinazolin-4-yl)amino]ethyl}thiophen-2-yl)phenyl]-2-methylpropan-1-ol] | 1350 | 1630 | 
21 | COc1cc2nc(C)nc(NC(C)c3ccc(-c4ccccc4C(O)C(F)(F)F)s3)c2cc1OC (centres unmarked) [Example 380, 1-[2-(5-{1-[(6,7-dimethoxy-2-methylquinazolin-4-yl)amino]ethyl}thiophen-2-yl)phenyl]-2,2,2-trifluoroethanol] | 1600 | 2740 | 
22 | COc1cc2nc(C)nc(NC(C)c3cc(C)c(-c4cnc5n4CCC5)s3)c2cc1OC (centres unmarked) [Example 381, N-{1-[5-(6,7-dihydro-5H-pyrrolo[1,2-a]imidazol-3-yl)-4-methylthiophen-2-yl]ethyl}-6,7-dimethoxy-2-methylquinazolin-4-amine] | 1900 | 2330 | 
23 | COc1cc2nc(C)nc(NC(C)c3ccc(-c4ccc(F)cc4CNC(=O)CO)s3)c2cc1OC (centres unmarked) [Example 382, N-[2-(5-{1-[(6,7-dimethoxy-2-methylquinazolin-4-yl)amino]ethyl}thiophen-2-yl)-5-fluorobenzyl]-2-hydroxyacetamide] | 931 | 748 | 
24 | COCC(=O)NCc1cc(F)ccc1-c1ccc(C(C)Nc2nc(C)nc3cc(OC)c(OC)cc23)s1 (centres unmarked) [Example 383, N-[2-(5-{1-[(6,7-dimethoxy-2-methylquinazolin-4-yl)amino]ethyl}thiophen-2-yl)-5-fluorobenzyl]-2-methoxyacetamide] | 3620 | 5110 | 
25 | COc1cc2nc(C)nc(NC(C)c3ccc(-c4cc(Cl)ccc4CNC(=O)OC(C)(C)C)s3)c2cc1OC (centres unmarked) [Example 387, tert-butyl [4-chloro-2-(5-{1-[(6,7-dimethoxy-2-methylquinazolin-4-yl)amino]ethyl}-thiophen-2-yl)benzyl]carbamate] | 1660 | 8320 | 
26 | COc1cc2nc(C)nc(N[C@H](C)c3cccc(-c4ccnc(O)c4)c3)c2cc1OC [Example 388, 4-(3-{(1R)-1-[(6,7-dimethoxy-2-methylquinazolin-4-yl)amino]ethyl}phenyl)pyridin-2-ol] | 801 | 757 | 
27 | COc1cc2nc(C)nc(NC(C)c3cccc(OCc4ccccc4)c3)c2cc1OC (centres unmarked) [Example 389, N-{1-[3-(benzyloxy)phenyl]ethyl}-6,7-dimethoxy-2-methylquinazolin-4-amine] | 14900 | 16900 | 
28 | Cc1nc(N[C@H](C)c2cccc(Cl)c2)c2cc(C(C)(C)O)ccc2n1 [Example 392, 2-(4-{[(1R)-1-(3-chlorophenyl)ethyl]amino}-2-methylquinazolin-6-yl)propan-2-ol] | 1190 | 1520 | 
29 | COc1cc2nc(C)nc(N[C@H](C)c3cccc(-c4ccccc4CC(N)=O)c3)c2cc1OC [Example 393, 2-(3′-{(1R)-1-[(6,7-dimethoxy-2-methylquinazolin-4-yl)amno]ethyl}biphenyl-2-yl)acetamide] | 975 | 1040 | 
30 | COc1cc2nc(C)nc(NC(C)c3ccc(-c4ccccc4CC(N)=O)s3)c2cc1OC (centres unmarked) [Example 394, 2-[2-(5-{1-[(6,7-dimethoxy-2-methylquinazolin-4-yl)amino]ethyl}thiophen-2-yl)phenyl]acetamide] | 1620 | 2290 | 
31 | COc1cc2nc(C)nc(NC(C)c3ccc(-c4ccc(O)nc4)s3)c2cc1OC (centres unmarked) [Example 395, 5-(5-{1-[(6,7-dimethoxy-2-methylquinazolin-4-yl)amino]ethyl}thiophen-2-yl)pyridin-2-ol] | 1060 | 1020 | 
